EC50 data for 13 molecules are collected here from patent US9181181B2, “2-substituted-3-phenylpropionic acid derivatives and their use in the treatment of inflammatory bowel disease” (Albireo AB, priority 2007, dated 2015).

For experiment [1], the target named is human PPARgamma (Homo sapiens (Human), UniProt P37231). Nature of the experiment: Transactivation (reporter gene) assay, GAL4-PPARgamma LBD in U-2 OS cells. The following applies: 40 h incubation, 16 μM Pioglitazone as 100% control, read-out: EC50 PPARγ. The experiment is classed as cell-based. The procedure: (§1) Transactivation Assay Expression vectors were prepared by inserting the ligand binding domain cDNA (complementary DNA) of human PPARalpha (amino acid 168-468) and human PPARgamma (amino acid 205-505), 3′ to and in frame with, the yeast GAL4 transcription factor DNA binding domain and the nuclear localization signal from the T-antigen of Polyoma Virus into the mammalian expression vector pSGS (Stratagene). The resulting expression vectors pSGGAL-PPARalpha and pSGGAL-PPARgamma were used in co-transfection experiments together with a modified pGL3 promoter plasmid (Promega) containing five copies of the UAS GAL4 recognition site. 2.5 μg pSGGAL-PPARalpha or pSGGAL-PPARgamma were mixed with 25 μg pGL3p […] and 22.5 μg pBluescript (Stratagene) in 0.95 mL ice cold PBS containing between 9-12 million U-2 OS (human osteosarcoma) cells. The cell/DNA mixture was incubated on ice for 5 minutes and then divided between two 0.4 cm cuvettes and electroporated at 960 μF, 230 V using a BioRad electroporator. The two electroporation mixes were combined in assay medium [Dulbecco's Modified Eagle Medium w/o phenol red, (Gibco 11880-028) including 10% FBS (Foetal Bovine Serum), 1% PEST (Penicillin & Streptomycin), 20 mM Hepes, 2 mM L-Glutamine and 0.36% Glucose (Gibco 31966-021)] at 0.32 million cells/ml. 25 μl diluted, electroporated cells, were seeded into 384-well plates and allowed to adhere for 3-4 h at 37° C., 5% CO2 in a cell culture incubator. Test compounds in DMSO were diluted 40 fold in assay medium. 7 μl of diluted compound was added to the adhered electroporated cells and incubation was continued for 40 h in a cell culture incubator. Cells were lysed by adding 32 μl/well LucLite (Packard) and incubated at room temperature for 15 minutes. Luciferase activity was measured using a luminometry protocol on a Wallac Victor2 plate reader. 16 μM ETYA was used as the 100% control for humanPPARalpha activity and 16 μM Pioglitazone was used as the 100% control for humanPPARgamma activity. In Vivo Assay Determination of Plasma Clearance and Oral Bioavailability in Hamster or Mouse
For orientation: In a reporter assay the amount or activity of a reporter protein is the signal.

Experiment [2] concerns the target human PPARalpha (Homo sapiens (Human), UniProt Q07869). Nature of the experiment: Transactivation (reporter gene) assay, GAL4-PPARalpha LBD in U-2 OS cells. The experiment is classed as cell-based. To be noted: 40 h incubation, 16 μM ETYA as 100% control, read-out: EC50 PPARα. Here is the method: as §1

human PPARgamma, sequence (P37231 205-505): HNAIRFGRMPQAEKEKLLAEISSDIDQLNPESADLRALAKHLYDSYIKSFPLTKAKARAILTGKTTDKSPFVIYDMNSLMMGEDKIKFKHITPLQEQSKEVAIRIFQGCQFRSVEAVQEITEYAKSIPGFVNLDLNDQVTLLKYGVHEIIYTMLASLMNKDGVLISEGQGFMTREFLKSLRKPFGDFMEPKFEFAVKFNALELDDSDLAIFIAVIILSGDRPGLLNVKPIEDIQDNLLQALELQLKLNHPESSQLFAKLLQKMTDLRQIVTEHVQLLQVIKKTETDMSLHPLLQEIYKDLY
human PPARalpha, sequence (Q07869 168-468): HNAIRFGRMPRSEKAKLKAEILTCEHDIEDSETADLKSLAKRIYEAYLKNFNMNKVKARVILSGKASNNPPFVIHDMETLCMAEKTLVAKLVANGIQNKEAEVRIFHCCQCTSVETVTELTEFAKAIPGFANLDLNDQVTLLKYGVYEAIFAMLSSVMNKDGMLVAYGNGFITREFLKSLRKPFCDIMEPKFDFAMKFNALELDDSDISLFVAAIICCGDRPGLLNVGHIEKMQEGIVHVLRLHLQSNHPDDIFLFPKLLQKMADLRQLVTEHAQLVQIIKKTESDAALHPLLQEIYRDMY

One may read the EC50 as the concentration needed to bring the measured effect to its halfway point. On to `CC(OC(=O)Cc1cccc(SCc2ccccc2C(=O)O)c1)c1ccc(C(F)(F)F)cc1` (centres unmarked) [Example 31, 2-{3-[1-(4-Trifluoromethyl-phenyl)-ethoxycarbonylmethyl]phenylsulfanylmethyl}-benzoic acid], for which the EC50 is 3.5 µM in experiment [1] and 18 µM in experiment [2].
For the molecule `O=C(Cc1cccc(SCc2ccccc2C(=O)O)c1)OCCc1ccc(C(F)(F)F)cc1` [Example 32, 2-{3-[2-(4-Trifluoromethyl-phenyl)-ethoxycarbonylmethyl]-phenylsulfanylmethyl}-benzoic acid], the results for the EC50 in experiment [1] and in experiment [2] were 3 µM and 5.5 µM, respectively.
Taken in the same sequence, the figures for `Cc1cccc(C)c1COC(=O)Cc1ccc(SCc2ccccc2C(=O)O)cc1` [Example 33, 2-[4-(2,6-Dimethyl-benzyloxycarbonylmethyl)-phenylsulfanylmethyl]-benzoic acid] were 18 µM and 0.62 µM.
Taken in the same sequence, the figures for `C=CCC(OC(=O)Cc1ccc(SCc2ccccc2C(=O)O)cc1)c1ccccc1` (centres unmarked) [Example 34, 2-[4-(1-Phenyl-but-3-enyloxycarbonylmethyl)-phenylsulfanylmethyl]-benzoic acid] were 15 µM and 18 µM.
Taken in the same sequence, the figures for `COC(=O)C(Cc1ccccc1)OC(=O)Cc1cccc(SCc2ccccc2C(=O)O)c1` (centres unmarked) [Example 35, 2-[3-(1-Methoxycarbonyl-2-phenyl-ethoxycarbonylmethyl)-phenylsulfanylmethyl]-benzoic acid] were 6 µM and 22 µM.
For the molecule `COc1ccc(CCOC(=O)Cc2ccc(SCc3ccccc3C(=O)O)cc2)cc1OC` [Example 36, 2-{4-[2-(3,4-Dimethoxy-phenyl)-ethoxycarbonylmethyl]-phenylsulfanylmethyl}-benzoic acid], the EC50 in experiment [1] came out at 7 µM; in experiment [2] it was 21 µM.
Regarding `COC(=O)C(Cc1ccccc1)OC(=O)Cc1ccc(SCc2ccccc2C(=O)O)cc1` (centres unmarked) [Example 37, 2-[4-(1-Methoxycarbonyl-2-phenylethoxycarbonylmethyl)phenylsulfanylmethyl]-benzoic acid], the concentration giving a half-maximal response (EC50) is 3.9 µM in experiment [1] and 2.2 µM in experiment [2].
For `O=C(Cc1cccc(SCc2ccccc2C(=O)O)c1)OCCc1ccccc1C(F)(F)F` [Example 38, 2-{3-[2-(2-Trifluoromethylphenyl)ethoxycarbonylmethyl]phenylsulfanylmethyl}-benzoic acid], in that order: 9 µM and 3.8 µM.
For `O=C(Cc1ccc(SCc2ccccc2C(=O)O)cc1)OCCc1ccccc1C(F)(F)F` [Example 40, 2-{4-[2-(2-Trifluoromethylphenyl)ethoxycarbonylmethyl]phenylsulfanylmethyl}-benzoic acid], in that order: 8.2 µM and 0.76 µM.
In the case of `Cc1cccc(C)c1COC(=O)Cc1cccc(SCc2ccccc2C(=O)O)c1` [Example 41, 2-[3-(2,6-Dimethyl-benzyloxycarbonylmethyl)-phenylsulfanylmethyl]-benzoic acid], the values for the EC50 in experiment [1] and in experiment [2] were 3.8 µM and 15 µM, respectively.
For `O=C(Cc1cccc(SCc2ccccc2C(=O)O)c1)OCc1ccc(-n2cccn2)cc1` [Example 42, 2-[3-(4-Pyrazol-1-yl-benzyloxycarbonylmethyl)-phenylsulfanylmethyl]-benzoic acid], in that order: 4.2 µM and 18 µM.
Turning to `O=C(Cc1ccc(SCc2ccccc2C(=O)O)cc1)OCc1ccc(-n2cccn2)cc1` [Example 43, 2-[4-(4-Pyrazol-1-yl-benzyloxycarbonylmethyl)-phenylsulfanylmethyl]-benzoic acid], the EC50 in experiment [1] turned out to be 4.2 µM; in experiment [2] it was 16 µM.
As to `COc1ccc(CCOC(=O)Cc2cccc(SCc3ccccc3C(=O)O)c2)cc1OC` [Example 44, 2-{3-[2-(3,4-Dimethoxy-phenyl)-ethoxycarbonylmethyl]-phenylsulfanylmethyl}-benzoic acid], the EC50 in experiment [1] was 11 µM; in experiment [2] it was 18 µM.
